Three compounds from patent US5451582A, “Benzodiazepine derivatives, compositions containing them and their use in therapy” (Merck Sharp & Dohme Ltd., priority 1992, dated 1995) can be followed below.

Some results are limits rather than exact numbers.

One assay deals with T1, CCK receptor (pancreas) (Rattus norvegicus, UniProt P30551).
T1 construct: The whole pancreas was dissected free of fat tissue and was homogenized; from tissue; host or cells: rat pancreas membranes (male Sprague-Dawley)
T1 sequence (P30551 1-444): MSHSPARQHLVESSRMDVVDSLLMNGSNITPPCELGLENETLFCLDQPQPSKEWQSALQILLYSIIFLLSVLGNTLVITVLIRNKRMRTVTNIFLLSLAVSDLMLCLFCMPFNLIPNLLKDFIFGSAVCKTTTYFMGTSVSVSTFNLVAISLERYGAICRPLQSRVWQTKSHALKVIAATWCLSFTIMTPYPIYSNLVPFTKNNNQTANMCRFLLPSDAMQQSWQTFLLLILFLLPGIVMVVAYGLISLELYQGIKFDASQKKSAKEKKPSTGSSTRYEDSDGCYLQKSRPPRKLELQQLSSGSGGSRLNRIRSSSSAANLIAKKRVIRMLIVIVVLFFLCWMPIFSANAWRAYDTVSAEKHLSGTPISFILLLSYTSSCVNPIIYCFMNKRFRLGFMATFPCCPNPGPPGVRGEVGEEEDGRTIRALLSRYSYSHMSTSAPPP
As to the kind of experiment: CCK Receptor Binding (Pancreas), inhibition of 125I-CCK-8 binding. More on the design: species or system rat (male Sprague-Dawley). The note with it: rat pancreas membranes; 50 pM 125I-CCK-8; pH 6.5; 25° C., 2 hours. The method, then:
1. CCK Receptor Binding (Pancreas)
CCK-8 sulphated was radiolabelled with ^125 I-Bolton Hunter reagent (2000 Ci/mmole). Receptor binding was performed according to Chang and Lotti (Proc. Natl. Acad. Sci. 83, 4923-4926, 1986) with minor modifications.
Male Sprague-Dawley rats (150-200 g) were sacrificed by decapitation. The whole pancreas was dissected free of fat tissue and was homogenized in 25 volumes of ice-cold 10 mM N-2-hydroxyethyl-piperazine-N'-2-ethane sulphonic acid (HEPES) buffer with 0.1% soya bean trypsin inhibitor (pH 7.4 at 25° C.) with a Kinematica Polytron. The homogenates were centrifuged at 47,800 g for 10 min. Pellets were resuspended in 10 volumes of binding assay buffer (20 mM (HEPES)), 1 mM ethylene glycol-bis-(β-aminoethylether-N,N'-tetraacetic acid) (EGTA), 5 mM MgCl2, 150 mM NaCl, bacitracin 0.25 ml/ml, soya bean trypsin inhibitor 0.1 ml/ml, and bovine serum albumin 2 ml/ml pH 6.5 at 25° C.) using a Teflon (trademark) homogenizer, 15 strokes at 500 rpm. The homogenate was further diluted in binding assay buffer to give a final concentration of 0.5 ml original wet weight/1 ml buffer. For the binding assay, 50 μl of buffer (for total binding) or unlabelled CCK-8 sulphated to give a final concentration of 1 μM (for nonspecific binding) or the compounds of Formula I (for determination of inhibition of ^125 I-CCK-8 binding) and 50 μl of 500 pM ^125 I-CCK-8 (i.e. 50 pM final concentration) were added to 400 μl of the membrane suspensions in microfuge tubes. All assays were run in duplicate. The reaction mixtures were incubated at 25° C. for 2 hours and the reaction terminated by rapid filtration (Brandell 24 well cell harvester) over Whatman GF/C filters, washing 3×4 mls with ice-cold 100 Mm NaCl. The radioactivity on the filters was counted with a LKB gamma counter.
The preferred compounds of Formula I are those which produced dose-dependent inhibition of specific ^125 I-CCK-8 binding as defined as the difference between total and non-specific (i.e. in the presence of 1 μM CCK) binding. […]

A further assay concerns the target T2, CCK receptor (brain) (Cavia porcellus, UniProt H0VZC5).
T2 construct: the cortex was removed and homogenized in 25 mL ice-cold 0.32M sucrose; from tissue; host or cells: guinea pig cerebral cortex P2 membranes (male Hartley)
T2 sequence (H0VZC5 1-426): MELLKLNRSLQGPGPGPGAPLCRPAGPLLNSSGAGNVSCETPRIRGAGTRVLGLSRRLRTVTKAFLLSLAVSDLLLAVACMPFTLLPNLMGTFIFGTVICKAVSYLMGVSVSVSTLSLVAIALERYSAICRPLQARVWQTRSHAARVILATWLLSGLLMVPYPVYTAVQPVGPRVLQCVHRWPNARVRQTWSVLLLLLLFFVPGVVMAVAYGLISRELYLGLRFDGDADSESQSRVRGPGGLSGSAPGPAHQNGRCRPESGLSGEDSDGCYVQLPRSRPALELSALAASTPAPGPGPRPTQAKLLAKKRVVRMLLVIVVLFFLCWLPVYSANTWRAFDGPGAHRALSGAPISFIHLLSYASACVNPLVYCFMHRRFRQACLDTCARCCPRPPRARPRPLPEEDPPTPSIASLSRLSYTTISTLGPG
The assay is described as follows: CCK Receptor Binding (Brain), inhibition of 125I-CCK-8 binding. The note with it: guinea pig cortex membranes; 50 pM 125I-CCK-8; pH 6.5; 25° C., 2 hours. More on the design: species or system guinea pig (male Hartley). The procedure: 2. CCK Receptor Binding (Brain)
CCK-8 sulphated was radiolabelled and the binding was performed according to the description for the pancreas method with minor modifications.
Male Hartley guinea pigs (300-500 g) were sacrificed by decapitation and the cortex was removed and homogenized in 25 mL ice-cold 0.32M sucrose. The homogenates were centrifuged at 1000 g for 10 minutes and the resulting supernatant was recentrifuged at 20,000 g for 20 minutes. The P2 pellet was resuspended in binding assay buffer (20 mM HEPES, 5 mMMgCl2, 0.25 ml/ml bacitracin, 1 mM EGTA pH 6.5 at 25° C.), using a Teflon (trademark) homogenizer (5 strokes at 500 rpm) to give a final concentration of […] original wet weight/1.2 ml buffer. For the binding assay, 50 μl of buffer (for total binding) or unlabelled CCK-8 sulphated to give a final concentration of 1 μM (for nonspecific binding) or the compounds of Formula I (for determination of inhibition of ^125 I-CCK-8 binding) and 50 μl of 500 pM ^125 I-CCK-8 (i.e. final concentration of 50 pM) were added to 400 μl of the membrane suspensions in microfuge tubes. All assays were run in duplicate. The reaction mixtures were incubated at 25° C. for 2 hours and then the reaction was terminated by rapid filtration (Brandell 24 well cell harvester) on Whatman GF/C filters with 3×5 ml washes of cold 100 mM NaCl. The radioactivity on the filters was counted with a LKB gamma counter.
The preferred compounds of Formula I are those which produced dose-dependent inhibition of specific ^125 I-CCK-8 binding as defined as the difference between total and non-specific (i.e. in the presence of 1 μM CCK) binding.
Drug displacement studies were performed with at least 10 concentrations of compounds of Formula I and the IC50 values were determined by regression analysis IC50 refers to the concentration of the compound required to inhibit 50% of specific binding of ^125 I-CCK-8.

Take `CC1=NC(NC(=O)Nc2cccc(-c3nn[nH]n3)c2)C(=O)N(C)c2ccccc21` (racemic) [Example 1, N-[3(R,S)-2,3-Dihydro-1,5-dimethyl-2-oxo-1H-1,4-benzodiazepin-3-yl]N'-[3-tetrazol-5-ylphenyl]urea]: the results for the 50% inhibitory concentration (IC50) on CCK receptor (pancreas) and on CCK receptor (brain) were > 3000 nM and 104 nM, respectively.

`CC(C)CN1C(=O)C(NC(=O)Nc2cccc(-c3nn[nH]n3)c2)N=C(C(C)C)c2ccccc21` (racemic) [Example 2, N-[3(R,S)-2,3-Dihydro-1-(2-methylpropyl)-2-oxo-5-(2-propyl) -1H-1,4-benzodiazepin-3-yl]N'-[3-tetrazol-5-ylphenyl]urea]: the results for the IC50 at CCK receptor (pancreas) and at CCK receptor (brain) were 600 nM and 17 nM, respectively.

With `CC(C)CN1C(=O)C(NC(=O)Nc2cccc(C(=O)NS(C)(=O)=O)c2)N=C(C(C)(C)C)c2ccccc21` (racemic) [Example 3, N-[3(R,S)-2,3-Dihydro-5-(1,1-dimethylethyl)-1-(2-methylpropyl) -2-oxo-1H-1,4-benzodiazepin-3yl]N'-(3-(methylsulphonylaminocarbonyl)phenyl]urea], the 50% inhibitory concentration (IC50) (commonly the point on the concentration scale where inhibition reaches its midpoint) at CCK receptor (pancreas) was 612 nM; on CCK receptor (brain), 32 nM.
